Data as given in patent US20030224349A1, “Rapid assay to assess the potential for glucocorticoid analogs to promote the differentiation of human osteoblasts and predict bone safety” (Pfizer Inc., priority 2002, published 2003).
pIC50: −log10 of the molar value. Read-outs that look alike come from different tables or passages of the source.

Tests used:
Type in all cases: cell-based
[1] = tested on: IL-8; assay: inhibition of IL-1β-induced IL-8 release in SW1353 chondrocyte cells (ELISA); conditions: Homo sapiens, SW1353, 24 h, read-out: IC50, concentration reducing the release of IL-8 50%
Method: Glucocorticoids have anti-inflammatory efficacy in a variety of cell models. Clinically, glucocorticoids set the benchmark for anti-inflammatory therapeutics.
For efficacy testing, 10,000 SW1353 cells (ATCC# HTB-94) were plated in 96 well plates in DMEM with 10% Fetal Bovine Serum (FBS). The next day media was changed to DMEM without serum.
After 24 hours the amount of MMP13 and IL-8 released into the media was quantified using commercial ELISA assays (Amersham and R&D Systems, respectively).
The concentration of compound reducing the release of MMP13 or IL-8 50% (IC50) was determined from the plot of the drug dose vs. percent inhibition relative to the vehicle control.

[2] = tested on: MMP13; assay: inhibition of IL-1β-induced MMP13 release in SW1353 chondrocyte cells (ELISA); conditions: Homo sapiens, read-out: IC50, concentration reducing the release of MMP13 50%
[3] = tested on: primary human osteoblasts; assay: alkaline phosphatase assay in primary human osteoblasts; conditions: 13 days of treatment
Method: For alkaline phosphatase testing, primary human osteoblasts (Biowhittaker CC-2538) were plated at a density of 4,400 cells per well in 24-well plates containing OGM medium (Biowhittaker CC-3207) with 10% Fetal Bovine Serum (FBS). The next day media was changed to OGM medium supplemented with 0.1 mM ascorbic acid and 10 mM □-glycerophosphate (differentiation supplements, Biowhittaker CC-4194), and treated with reference and test compounds in a range of doses from 100 nM to 10 uM). Fresh media was added 2× per week.
After 13 days the cells were harvested and extract prepared for analysis.
Differentiation supplement medium was changed every three to four days with fresh test compound addition each time. After seven to thirteen days, the amount of alkaline phosphatase produced by the cultures was quantified using commercial alkaline phosphatase reagent (ALP Reagent) and standard (Sigma M2266 and 245-10, respectively).
Cells were rinsed with 0.9% NaCl, and lysed in alkaline phosphatase assay buffer (150 mM Tris-HCl pH 8, 0.1 mM MgCl2, 0.1 mM ZnCl2, 1% Triton X-100). Prewarmed ALP Reagent was added to lysate or to serial dilutions of the alkaline phosphatase standard and incubated at 37° C. for 30 minutes.
The calorimetric endpoint of absorbance at 405 nm was read on a SpectraMax 340 microplate reader (Molecular Devices), and after extrapolation from standard curve, values were reported in units of enzyme activity per volume.

[4] = tested on: primary human osteoblasts; assay: nodule assay (Von Kossa staining) in primary human osteoblasts; conditions: 28 days of treatment
Method: Primary human osteoblasts were cultured as for the alkaline phosphatase assay. After 28 days of test compound treatment, the cultures were fixed with 70% ethanol for 10 minutes, stained with 5% silver nitrate solution and exposed to bright light (Polaroid imaging system with 4×150 watt lamps) for 20 to 30 minutes. Wells were rinsed with water, air dried and nodules documented by micrographs at 300× magnification.

Structure (SMILES) | pIC50 [1] | pIC50 ([2]; SW1353, 24 h) | induction of alkaline phosphatase production/activity (in words) [3] | alkaline phosphatase expression, % of dexamethasone maximum ([3]; at 1 uM) | induction of alkaline phosphatase production/activity (in words) ([3]; listed as Hydrocortisone) | nodule formation / mineral deposition (Von Kossa staining, in words) [4] | pIC50 ([2]; SW1353 cells, 10 ng/ml IL-1β, 24 hours)
C[C@@H]1C[C@H]2[C@@H]3CCC4=CC(=O)C=C[C@]4(C)[C@@]3(F)[C@@H](O)C[C@]2(C)[C@@]1(O)C(=O)CO [dexamethasone] | ~9.00 | ~9.00 | – | – | – | – | –
C[C@]12CCC(=O)C=C1CC[C@@H]1[C@@H]2[C@@H](O)C[C@@]2(C)[C@H]1CC[C@]2(O)C(=O)CO [hydrocortisone] | – | – | stimulated | about 64% | dose dependent increase | dose-dependant nodule formation | 7.22
